Measured values reported in patent publication US8575091B1, “Amylin analogues and pharmaceutical compositions thereof” (Novo Nordisk A/S, priority 2012, dated 2013).
Numbered stars: 1 amine (or outer) side, 2 acyl side, 3 side chain; on linkers, the order of the positions; unused ones are H or OH. Bridge positions count the residues as written; N and C are the ends. Side chains are listed from the residue outwards. Peptide text beside a SMILES is read from it. * marks the point of attachment. C20 diacid = O=C(O)CCCCCCCCCCCCCCCCCCC(=O)*; γGlu = O=C(O)[C@H](CCC(=O)[*:2])N[*:1]

Columns and labels:
[1] = molecular target: T1, human amylin receptor (amylin 3(a) receptor: human calcitonin receptor + RAMP-3) (Homo sapiens, UniProt O60896+P30988); test: Assay (II)a functional assay, human amylin receptor (CRE luciferase, BHK cells); assay type: cell-based; conditions: for EC50: functional assay, human amylin receptor, read-out: hAmylin-R funct. EC50
T1 construct: expressed in transfected cells
T1 sequence (P30988 25-474): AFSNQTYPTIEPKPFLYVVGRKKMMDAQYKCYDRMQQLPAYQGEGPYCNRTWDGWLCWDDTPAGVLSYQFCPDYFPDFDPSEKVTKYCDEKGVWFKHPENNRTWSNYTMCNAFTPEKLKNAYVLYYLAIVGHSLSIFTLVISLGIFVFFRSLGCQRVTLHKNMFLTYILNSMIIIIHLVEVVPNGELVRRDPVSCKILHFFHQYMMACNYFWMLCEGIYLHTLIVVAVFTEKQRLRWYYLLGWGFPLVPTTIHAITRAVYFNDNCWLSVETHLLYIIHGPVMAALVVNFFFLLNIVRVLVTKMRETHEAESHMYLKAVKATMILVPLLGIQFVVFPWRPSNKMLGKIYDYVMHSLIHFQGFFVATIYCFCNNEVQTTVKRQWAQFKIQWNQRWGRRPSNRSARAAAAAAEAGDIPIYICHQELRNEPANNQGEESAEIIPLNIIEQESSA
T1 sequence (O60896 24-148 partner): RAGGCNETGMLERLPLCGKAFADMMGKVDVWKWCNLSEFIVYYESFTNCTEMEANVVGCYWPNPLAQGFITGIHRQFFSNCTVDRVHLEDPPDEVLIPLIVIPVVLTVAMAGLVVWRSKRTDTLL

[2] = molecular target: T2, human calcitonin receptor (Homo sapiens, UniProt P30988); test: Assay (II)a functional assay, human calcitonin receptor (CRE luciferase, BHK cells);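 further: luminescence from a CRE-driven luciferase reporter, read by single photon counting after cells were exposed to test samples for 3 h at 37 °C under 5% CO2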; assay type: cell-based; conditions: read-out: hCTR funct. EC50
T2 construct: expressed in transfected cells
T2 sequence (P30988 25-474): T1 sequence (P30988 25-474)

[3] = molecular target: T3, human amylin receptor (Homo sapiens, UniProt O60896+P30988); test: Assay (V) binding to the human amylin receptor (SPA, 125I-rat amylin); conditions: human amylin receptor membranes, SPA; read-out: hAmylin-R bind IC50
T3 construct: expressed in transfected cells
T3 sequence (P30988 25-474): T1 sequence (P30988 25-474)
T3 sequence (O60896 24-148 partner): T1 sequence (O60896 24-148 partner)
Procedure, shortened: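 IC50, taken as receptor affinity, came from one-site binding competition analysis of scintillation proximity counts. Amylin 3(a)/CRE-luc cell membranes (35 ng/μL final) were mixed with SPA beads (0.05 mg/well) in 50 mM Hepes pH 7.4 containing CaCl2, MgCl2, 0.1% OA and 0.02% Tween20.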

[4] = molecular target: T2, human calcitonin receptor; test: Assay (VII) binding to the human calcitonin receptor (SPA, 125I-Calcitonin); conditions: read-out: hCTR bind IC50;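 further: cell membranes coupled to SPA beads, competitive displacement read by scintillation counting, IC50 derived from a one-site competition fit as a measure of receptor affinity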
[5] = Table 6, human functional selectivity (hCTR EC50 / hAmylin-R EC50)
[6] = Table 6a, human functional selectivity (hCTR EC50 / hAmylin-R EC50), at least 5
[7] = Table 6j, hCTR funct. EC50 / hAmylin-R funct. EC50
[8] = Table 6k, hCTR funct. EC50 / hAmylin-R funct. EC50

EC50 [1]	EC50 [2]	IC50 [3]	IC50 [4]	Ratio hCT/hAmylin funct. [1, 5]	Ratio hCT/hAmylin funct. [1, 6]	Ratio hCT/hAmylin funct. [1, 7]	Ratio hCT/hAmylin funct. [1, 8]	SMILES
96 pM	5850 pM	382 pM	22700 pM	–	–	–	–	CC[C@H](C)[C@H](NC(=O)[C@H](C)NC(=O)CNC(=O)[C@H](Cc1ccccc1)NC(=O)[C@H](CC(N)=O)NC(=O)[C@@H]1CCCN1C(=O)[C@H](CO)NC(=O)[C@H](CO)NC(=O)[C@H](Cc1c[nH]cn1)NC(=O)[C@H](CCCNC(=N)N)NC(=O)[C@H](CC(C)C)NC(=O)[C@H](Cc1ccccc1)NC(=O)[C@H](CC(N)=O)NC(=O)[C@H](C)NC(=O)[C@H](CC(C)C)NC(=O)[C@H](CCCNC(=N)N)NC(=O)[C@H](CCC(N)=O)NC(=O)[C@@H](NC(=O)[C@H](C)NC(=O)[C@@H]1CSSC[C@H](NC(=O)[C@@H](N)CCCCNC(=O)CC[C@H](NC(=O)CCCCCCCCCCCCCCCCC(=O)O)C(=O)O)C(=O)N[C@@H](CC(N)=O)C(=O)N[C@@H]([C@@H](C)O)C(=O)N[C@@H](C)C(=O)N[C@@H]([C@@H](C)O)C(=O)N1)[C@@H](C)O)C(=O)N1CCC[C@H]1C(=O)N[C@@H](CO)C(=O)N[C@@H](CO)C(=O)N[C@H](C(=O)N[C@@H](CC(N)=O)C(=O)N[C@H](C(=O)NCC(=O)N[C@@H](Cc1c[nH]cn1)C(=O)N[C@@H](CC(N)=O)C(=O)N[C@H](C(=O)N[C@@H](Cc1ccc(O)cc1)C(N)=O)[C@@H](C)O)C(C)C)[C@@H](C)O [Example 113]
82 pM	818 pM	348 pM	35000 pM	10.0	10.0	10.0	10.0	CC[C@H](C)[C@H](NC(=O)[C@H](C)NC(=O)CNC(=O)[C@H](Cc1ccccc1)NC(=O)[C@H](CC(N)=O)NC(=O)[C@@H]1CCCN1C(=O)[C@H](CO)NC(=O)[C@H](CO)NC(=O)[C@H](Cc1c[nH]cn1)NC(=O)[C@H](CCCNC(=N)N)NC(=O)[C@H](CC(C)C)NC(=O)[C@H](Cc1ccccc1)NC(=O)[C@H](Cc1c[nH]cn1)NC(=O)[C@H](C)NC(=O)[C@H](CC(C)C)NC(=O)[C@H](CCCNC(=N)N)NC(=O)[C@H](CCC(N)=O)NC(=O)[C@@H](NC(=O)[C@H](C)NC(=O)[C@@H]1CSSC[C@H](NC(=O)[C@H](CCCNC(=N)N)NC(=O)CNC(=O)CC[C@H](NC(=O)CCCCCCCCCCCCCCCCCCC(=O)O)C(=O)O)C(=O)N[C@@H](CC(N)=O)C(=O)N[C@@H]([C@@H](C)O)C(=O)N[C@@H](C)C(=O)N[C@@H]([C@@H](C)O)C(=O)N1)[C@@H](C)O)C(=O)N1CCC[C@H]1C(=O)N[C@@H](CO)C(=O)N[C@@H](CO)C(=O)N[C@H](C(=O)N[C@@H](CC(N)=O)C(=O)N[C@H](C(=O)NCC(=O)N[C@@H](CO)C(=O)N[C@@H](CC(N)=O)C(=O)N[C@H](C(=O)N[C@@H](Cc1ccc(O)cc1)C(N)=O)[C@@H](C)O)C(C)C)[C@@H](C)O [Example 99] ({C20 diacid-γGlu}-GRCNTATCATQRLAHFLRHSSPNFGAIPSSTNVGSNTY-NH2; disulfide 3-8)
351 pM	5360 pM	695 pM	31400 pM	–	–	–	–	CC[C@H](C)[C@H](NC(=O)[C@H](C)NC(=O)CNC(=O)[C@H](Cc1ccccc1)NC(=O)[C@H](CC(N)=O)NC(=O)[C@@H]1CCCN1C(=O)[C@H](CO)NC(=O)[C@H](CO)NC(=O)[C@H](Cc1c[nH]cn1)NC(=O)[C@H](CCCNC(=N)N)NC(=O)[C@H](CC(C)C)NC(=O)[C@H](Cc1ccccc1)NC(=O)[C@H](CC(N)=O)NC(=O)[C@H](C)NC(=O)[C@H](CC(C)C)NC(=O)[C@H](CCCNC(=N)N)NC(=O)[C@H](CCC(N)=O)NC(=O)[C@@H](NC(=O)[C@H](C)NC(=O)[C@@H]1CSSC[C@H](NC(=O)[C@@H](N)CCCCNC(=O)CC[C@H](NC(=O)CCCCCCCCCCCCCCCCCCC(=O)O)C(=O)O)C(=O)N[C@@H](CC(N)=O)C(=O)N[C@@H]([C@@H](C)O)C(=O)N[C@@H](C)C(=O)N[C@@H]([C@@H](C)O)C(=O)N1)[C@@H](C)O)C(=O)N1CCC[C@H]1C(=O)N[C@@H](CO)C(=O)N[C@@H](CO)C(=O)N[C@H](C(=O)N[C@@H](CC(N)=O)C(=O)N[C@H](C(=O)NCC(=O)N[C@@H](CO)C(=O)N[C@@H](Cc1c[nH]cn1)C(=O)N[C@H](C(=O)N[C@@H](Cc1ccc(O)cc1)C(N)=O)[C@@H](C)O)C(C)C)[C@@H](C)O [Example 60]
217 pM	10000 pM	768 pM	43400 pM	–	–	–	–	CC[C@H](C)[C@H](NC(=O)[C@H](C)NC(=O)CNC(=O)[C@H](Cc1ccccc1)NC(=O)[C@H](CC(N)=O)NC(=O)[C@@H]1CCCN1C(=O)[C@H](CO)NC(=O)[C@H](CO)NC(=O)[C@H](Cc1c[nH]cn1)NC(=O)[C@H](CCCNC(=N)N)NC(=O)[C@H](CC(C)C)NC(=O)[C@H](Cc1ccccc1)NC(=O)[C@H](CC(N)=O)NC(=O)[C@H](C)NC(=O)[C@H](CC(C)C)NC(=O)[C@H](CCCNC(=N)N)NC(=O)[C@H](CCC(N)=O)NC(=O)[C@@H](NC(=O)[C@H](C)NC(=O)[C@@H]1CSSC[C@H](NC(=O)[C@@H](N)CCCCNC(=O)COCCOCCNC(=O)COCCOCCNC(=O)CC[C@H](NC(=O)CCCCCCCCCCCCCCCCCCC(=O)O)C(=O)O)C(=O)N[C@@H](CC(N)=O)C(=O)N[C@@H]([C@@H](C)O)C(=O)N[C@@H](C)C(=O)N[C@@H]([C@@H](C)O)C(=O)N1)[C@@H](C)O)C(=O)N1CCC[C@H]1C(=O)N[C@@H](CO)C(=O)N[C@@H](CO)C(=O)N[C@H](C(=O)N[C@@H](CC(N)=O)C(=O)N[C@H](C(=O)NCC(=O)N[C@@H](CO)C(=O)N[C@@H](CCC(=O)O)C(=O)N[C@H](C(=O)N[C@@H](Cc1ccc(O)cc1)C(N)=O)[C@@H](C)O)C(C)C)[C@@H](C)O [Example 25]
159 pM	843 pM	172 pM	8560 pM	5.3	5.3	5.3	5.3	CC[C@H](C)[C@H](NC(=O)[C@H](C)NC(=O)CNC(=O)[C@H](Cc1ccccc1)NC(=O)[C@H](CC(N)=O)NC(=O)[C@@H]1CCCN1C(=O)[C@H](CO)NC(=O)[C@H](CO)NC(=O)[C@H](Cc1c[nH]cn1)NC(=O)[C@H](CCCNC(=N)N)NC(=O)[C@H](CC(C)C)NC(=O)[C@H](Cc1ccccc1)NC(=O)[C@H](CC(=O)O)NC(=O)[C@H](C)NC(=O)[C@H](CC(C)C)NC(=O)[C@H](CCCNC(=N)N)NC(=O)[C@H](CCC(N)=O)NC(=O)[C@@H](NC(=O)[C@H](C)NC(=O)[C@@H]1CSSC[C@H](NC(=O)[C@@H](N)CCCCNC(=O)CC[C@H](NC(=O)CC[C@H](NC(=O)CCCCCCCCCCCCCCCCCCC(=O)O)C(=O)O)C(=O)O)C(=O)N[C@@H](CC(N)=O)C(=O)N[C@@H]([C@@H](C)O)C(=O)N[C@@H](C)C(=O)N[C@@H]([C@@H](C)O)C(=O)N1)[C@@H](C)O)C(=O)N1CCC[C@H]1C(=O)N[C@@H](CO)C(=O)N[C@@H](CO)C(=O)N[C@H](C(=O)N[C@@H](CC(N)=O)C(=O)N[C@H](C(=O)NCC(=O)N1CCC[C@H]1C(=O)N[C@@H](CCC(=O)O)C(=O)N[C@H](C(=O)N[C@@H](Cc1ccc(O)cc1)C(N)=O)[C@@H](C)O)C(C)C)[C@@H](C)O [Example 122] (H-K([γGlu-γGlu-C20 diacid])CNTATCATQRLADFLRHSSPNFGAIPSSTNVGPETY-NH2; disulfide 2-7)
270 pM	1030 pM	794 pM	9730 pM	3.8	–	–	–	CC[C@H](C)[C@H](NC(=O)[C@H](C)NC(=O)CNC(=O)[C@H](Cc1ccccc1)NC(=O)[C@H](CC(N)=O)NC(=O)[C@@H]1CCCN1C(=O)[C@H](CO)NC(=O)[C@H](CO)NC(=O)[C@H](Cc1c[nH]cn1)NC(=O)[C@H](CCCNC(=N)N)NC(=O)[C@H](CC(C)C)NC(=O)[C@H](Cc1ccccc1)NC(=O)[C@H](CCC(=O)O)NC(=O)[C@H](C)NC(=O)[C@H](CC(C)C)NC(=O)[C@H](CCCNC(=N)N)NC(=O)[C@H](CCC(N)=O)NC(=O)[C@@H](NC(=O)[C@H](C)NC(=O)[C@@H]1CSSC[C@H](NC(=O)[C@H](CCCCN)NC(=O)CC[C@H](NC(=O)CCCCCCCCCCCCCCCCCCC(=O)O)C(=O)O)C(=O)N[C@@H](CC(N)=O)C(=O)N[C@@H]([C@@H](C)O)C(=O)N[C@@H](C)C(=O)N[C@@H]([C@@H](C)O)C(=O)N1)[C@@H](C)O)C(=O)N1CCC[C@H]1C(=O)N[C@@H](CO)C(=O)N[C@@H](CO)C(=O)N[C@H](C(=O)N[C@@H](CC(N)=O)C(=O)N[C@H](C(=O)NCC(=O)N[C@@H](CO)C(=O)N[C@@H](CCC(=O)O)C(=O)N[C@H](C(=O)N[C@@H](Cc1ccc(O)cc1)C(N)=O)[C@@H](C)O)C(C)C)[C@@H](C)O [Example 22] ({C20 diacid-γGlu}-KCNTATCATQRLAEFLRHSSPNFGAIPSSTNVGSETY-NH2; disulfide 2-7)
